Laboratory results from patent publication US8592431B2, “Fused ring compound and use thereof” (Takeda Pharmaceutical Company Limited, priority 2009, dated 2013).

Columns and labels:
Male Wistar fatty rats = test: Plasma triglyceride and glucose lowering in Wistar fatty rats, oral, once a day for 2 weeks; format: in vivo, rat; details: versus vehicle group
Description: Male 25-31 weeks-old Wistar fatty rats (Takeda Pharmaceutical Company) were divided to each group with equalization of plasma levels of triglyceride, glucose and body weight in fed condition. The groups of rats were treated with vehicle (0.5 w/v % methylcellulose) or compounds. All compounds were suspended in 0.5 w/v % methylcellulose and orally administered at a volume of 2 mL/kg, once a day for 2 weeks. The next day of the final administration, blood was collected from the tail vein to measure plasma parameters. Heparin was used as an anticoagulant. Plasma levels of triglyceride and glucose were measured enzymatically using Hitachi Autoanalyser 9000. The inhibition rates from vehicle treatment group were calculated for each compound after the treatment for 2 weeks.

Male SHRs = test: Antihypertensive effect: mean blood pressure in SHRs after oral administration; format: in vivo, rat; details: SHR, during 24 hours after administration
Description: Male SHRs (28-40 weeks old, Japan SLC, Inc., Japan) were anesthetized with sodium pentobarbital (50 mg/kg, i.p.). The left femoral artery was cannulated with a polyethylene catheter filled with saline comprising heparin (200 U/mL). The catheter was exteriorized at the back of the neck and each SHR was individually housed in a cage and left two or four days to recover. The mean blood pressure (MBP) was obtained from the systemic blood pressure which was monitored from the femoral artery using a pressure transducer connected to a polygraph system (Nihon Kohden Corporation). The heart rate was measured from the blood pressure pulse intervals. The rats which had MBP over 150 mmHg were used for the experiment. When the blood pressure had stabilized, vehicle (0.5 w/v % methylcellulose) or compounds were orally administered. All compounds were suspended in 0.5 w/v % methylcellulose and orally administered at a volume of 2 mL/kg. The MBP was measured during 24 hours after the administration.

human AT1 receptor = human AT1 receptor (Homo sapiens (Human), UniProt P30556); test: AT1 receptor antagonistic activity: [125I]-angiotensin II binding assay with AT1 membrane; details: 22.5 pM [125I]-angiotensin II, human AT1 receptor-expressing CHO-K1 membrane, 1 hr room temperature
Description: Evaluation of AT1 Receptor Antagonistic Activity
(1) Preparation of Human AT1 Receptor-Expressing CHO-K1 Cellular Membrane Fraction
CHO-K1 cell (RIKEN, Japan) capable of stable expression of human AT1 receptor was cultured, recovered, suspended in homogenize buffer (10 mM NaHCO3 (pH 7.4), 5 mM EDTA, 1× Complete EDTA free) [manufactured by Roche, Switzerland], and homogenized. The homogenate was centrifuged at low-speed (900×g, 10 min, 4° C.), and the supernatant was recovered and ultracentrifuged (90,000×g, 1 hr, 4° C.). The supernatant was discarded, and the pellets were resuspended in suspension buffer (50 mM Tris (pH 7.4), 1 mM EDTA, 1× Complete EDTA free).
(2) Evaluation of AT1 Receptor Antagonistic Activity
(9 μg) in the presence of AT1 membrane and test compound in 100 μL (total reaction volume) of reaction buffer (50 mM Tris (pH 7.4), 10 mM MgCl2 supplemented or not supplemented with 0.3 mg/mL fatty acid-free bovine serum albumin [manufactured by Wako Pure Chemical Industries, Ltd., Japan]). The reaction mixture was incubated in 96 well polypropylene plate for 1 hr at room temperature, and the reaction was quenched by rapid filtration (96 well cell harvester) through a GF/C filter treated with wash buffer (50 mM Tris (pH 7.4)). Subsequently, the filter was washed 5 times with 0.3 mL of ice-cooled wash buffer. […] Total binding was measured in the presence of 1% DMSO and nonspecific binding was measured in the presence of 1 μM Candesartan.

[1] = 10 mg/kg once a day for 2 weeks
[2] = 30 mg/kg once a day for 2 weeks

human AT1 receptor, sequence (P30556 whole entry): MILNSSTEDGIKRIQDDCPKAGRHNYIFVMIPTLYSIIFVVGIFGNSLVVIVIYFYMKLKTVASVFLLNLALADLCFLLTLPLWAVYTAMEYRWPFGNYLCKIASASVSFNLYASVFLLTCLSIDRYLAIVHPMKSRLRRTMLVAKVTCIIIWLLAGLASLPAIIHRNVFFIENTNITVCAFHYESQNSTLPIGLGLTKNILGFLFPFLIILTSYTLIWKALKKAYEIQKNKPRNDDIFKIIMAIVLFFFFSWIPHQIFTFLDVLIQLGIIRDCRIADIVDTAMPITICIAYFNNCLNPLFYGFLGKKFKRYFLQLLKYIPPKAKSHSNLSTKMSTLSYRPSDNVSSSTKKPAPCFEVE

CCCc1c(Cc2ccc(-c3ccccc3-c3noc(=O)[nH]3)cc2F)c(=O)n(C2CCC(OC(C)C(C)(C)O)CC2)c2ncnn12 (single isomer, unassigned; (+)) [Example 458, hydrate]
Inhibition rate of plasma glucose (%) (Male Wistar fatty rats; 3 mg/kg once a day for 2 weeks): −0.2% | Inhibition rate of plasma triglyceride (%) (Male Wistar fatty rats; 3 mg/kg once a day for 2 weeks): 33.5% | Inhibition rate of plasma glucose (%) (Male Wistar fatty rats; [1]): 6.9% | Inhibition rate of plasma triglyceride (%) (Male Wistar fatty rats; [1]): 39.0% | Inhibition rate of plasma glucose (%) (Male Wistar fatty rats; [2]): 43.3% | Inhibition rate of plasma triglyceride (%) (Male Wistar fatty rats; [2]): 59.2% | Maximum MBP reduction (mmHg) (Male SHRs; dose 30 mg/kg): 70 mmHg

CCCc1c(Cc2ccc(-c3ccccc3-c3noc(=O)[nH]3)cc2)c(=O)n([C@H]2CC[C@H](OCC(C)(C)O)CC2)c2ccnn12 [Example 413, 4-[trans-4-(2-Hydroxy-2-methylpropoxy)cyclohexyl]-6-{[2′-(5-oxo-4,5-dihydro-1,2,4-oxadiazol-3-yl)biphenyl-4-yl]methyl}-7-propylpyrazolo[1,5-a]pyrimidin-5(4H)-one]
Inhibition rate of plasma glucose (%) (Male Wistar fatty rats; 3 mg/kg once a day for 2 weeks): 6.5% | Inhibition rate of plasma triglyceride (%) (Male Wistar fatty rats; 3 mg/kg once a day for 2 weeks): 12.0% | Inhibition rate of plasma glucose (%) (Male Wistar fatty rats; [1]): 19.1% | Inhibition rate of plasma triglyceride (%) (Male Wistar fatty rats; [1]): 21.5% | Inhibition rate of plasma glucose (%) (Male Wistar fatty rats; [2]): 53.3% | Inhibition rate of plasma triglyceride (%) (Male Wistar fatty rats; [2]): 46.0% | Maximum MBP reduction (mmHg) (Male SHRs; dose 10 mg/kg): 79 mmHg | IC50 (human AT1 receptor): 1.6 nM

CCCc1c(Cc2ccc(-c3ccccc3-c3noc(=O)[nH]3)cc2)c(=O)n([C@H]2CC[C@H](OCC(C)(C)O)CC2)c2ccnn12.[K] [Example 415, 4-[trans-4-(2-hydroxy-2-methylpropoxy)cyclohexyl]-6-{[2′-(5-oxo-4,5-dihydro-1,2,4-oxadiazol-3-yl)biphenyl-4-yl]methyl}-7-propylpyrazolo[1,5-a]pyrimidin-5(4H)-one potassium salt]
Inhibition rate of plasma glucose (%) (Male Wistar fatty rats; 3 mg/kg once a day for 2 weeks): 25.1% | Inhibition rate of plasma triglyceride (%) (Male Wistar fatty rats; 3 mg/kg once a day for 2 weeks): 38.1% | Inhibition rate of plasma glucose (%) (Male Wistar fatty rats; [1]): 54.3% | Inhibition rate of plasma triglyceride (%) (Male Wistar fatty rats; [1]): 57.7% | Maximum MBP reduction (mmHg) (Male SHRs; dose 3 mg/kg): 63 mmHg
